Assay results reported in patent US20250361268A1, “NOVEL ANTI-INFLAMMATORY PEPTIDE AND USE THEREOF” (NOVACELL TECHNOLOGY INC., priority 2022, published 2025).
Peptide text beside a SMILES is read from it.

Legend:
[1] = target: T1, FPR2 (Homo sapiens, UniProt P25090); experiment: Change in calcium activity by peptide (Fura-2) in RBL cells overexpressing FPR2; assay type: cell-based; settings: calcium activity (Fura-2), graded per Table 3, read-out: EC50 for [Ca^2+] FPR2
T1 construct: expressed in transfected cells; host or cells: RBL cells (RBL-FPR2)
T1 sequence (P25090 1-351): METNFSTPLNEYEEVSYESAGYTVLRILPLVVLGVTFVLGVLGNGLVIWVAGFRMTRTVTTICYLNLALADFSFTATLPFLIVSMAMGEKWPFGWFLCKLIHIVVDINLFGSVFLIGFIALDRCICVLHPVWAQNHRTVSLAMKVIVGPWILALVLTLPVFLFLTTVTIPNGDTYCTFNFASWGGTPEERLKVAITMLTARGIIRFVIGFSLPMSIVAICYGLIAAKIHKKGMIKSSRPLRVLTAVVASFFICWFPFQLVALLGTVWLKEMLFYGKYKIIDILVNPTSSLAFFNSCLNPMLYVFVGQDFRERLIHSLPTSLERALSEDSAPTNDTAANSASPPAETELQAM
Method in brief: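 Peptide-induced intracellular calcium change measured by Fura-2 fluorescence on a plate reader. Cells: RBL line overexpressing FPR2, dye-loaded 1 h at 37 °C then 30 min at RT in dark; peptides from 0.5 mM water/50% DMSO stocks, diluted in HBSS with 20 mM HEPES.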

[2] = target: T2, FPR1 (Homo sapiens, UniProt P21462); experiment: Change in calcium activity by peptide, FPR1 activation effect; assay type: cell-based; settings: calcium activity (Fura-2), graded per Table 3, read-out: EC50 for [Ca^2+] FPR1
T2 sequence (P21462 1-350): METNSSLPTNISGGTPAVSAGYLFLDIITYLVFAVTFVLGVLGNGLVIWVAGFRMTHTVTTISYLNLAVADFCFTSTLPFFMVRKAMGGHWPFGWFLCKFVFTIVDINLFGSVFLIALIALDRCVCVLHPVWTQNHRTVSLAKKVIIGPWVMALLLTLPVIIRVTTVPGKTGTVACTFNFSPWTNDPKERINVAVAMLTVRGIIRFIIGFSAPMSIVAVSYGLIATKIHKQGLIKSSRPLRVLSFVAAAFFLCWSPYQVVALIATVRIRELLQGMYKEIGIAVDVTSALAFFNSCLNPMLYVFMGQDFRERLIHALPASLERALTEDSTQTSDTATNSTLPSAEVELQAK
Method in brief: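 Calcium flux induced by peptide addition was monitored on a FlexStation 3 plate reader. Before this, cells seeded a day earlier (3×10^5/well) took up the Fura-2 dye for 1 h at 37 °C plus 30 min dark at room temperature.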

SMILES	EC50 [1] [nM]	EC50 [2] [µM]
CSCC[C@@H](NC(=O)[C@H](Cc1ccc(O)cc1)NC(=O)[C@H](CCCCN)NC(=O)[C@H](Cc1ccc(O)cc1)NC(=O)[C@H](CCCNC(=N)N)NC(=O)[C@H](Cc1c[nH]c2ccccc12)NC(=O)[C@@H](N)CCCNC(=N)N)C(N)=O [Peptide 32] (HELM PEPTIDE1{R.W.R.Y.K.Y.[dM].[am]}$$$$V2.0)	11 to 100	> 10
CSCC[C@H](NC(C)=O)C(=O)N[C@@H](CCCNC(=N)N)C(=O)N[C@@H](Cc1ccc(O)cc1)C(=O)N[C@@H](Cc1ccc(O)cc1)C(=O)N[C@@H](Cc1ccc(O)cc1)C(=O)N[C@H](CCSC)C(N)=O [Peptide 126] (HELM PEPTIDE1{[ac].M.R.Y.Y.Y.[dM].[am]}$$$$V2.0)	11 to 100	> 10
CSCC[C@H](NC(=O)[C@@H](N)CCCNC(=N)N)C(=O)N[C@@H](CCCNC(=N)N)C(=O)N[C@@H](Cc1ccc(O)cc1)C(=O)N[C@@H](Cc1ccc(O)cc1)C(=O)N[C@H](C(=O)N[C@H](CCSC)C(N)=O)C(C)C [Peptide 97] (HELM PEPTIDE1{R.M.R.Y.Y.V.[dM].[am]}$$$$V2.0)	< 10	1 to 10
CSCC[C@@H](NC(=O)[C@H](Cc1ccc(O)cc1)NC(=O)[C@@H](NC(=O)[C@H](Cc1ccc(O)cc1)NC(=O)[C@H](CCCNC(=N)N)NC(=O)[C@H](Cc1c[nH]c2ccccc12)NC(=O)[C@@H](N)CCCNC(=N)N)[C@@H](C)O)C(N)=O [Peptide 157] (HELM PEPTIDE1{R.W.R.Y.T.Y.[dM].[am]}$$$$V2.0)	< 10	> 10
CCCC(=O)N[C@@H](CCCNC(=N)N)C(=O)N[C@@H](CCSC)C(=O)N[C@@H](CCCNC(=N)N)C(=O)N[C@@H](Cc1ccc(O)cc1)C(=O)N[C@@H](CCCCN)C(=O)N1CCC[C@H]1C(=O)N[C@H](CCSC)C(N)=O [Peptide 52] (HELM PEPTIDE1{[CCCC(=O)[*:2]].R.M.R.Y.K.P.[dM].[am]}$$$$V2.0)	< 10	> 10
CCCC(=O)N[C@@H](Cc1c[nH]cn1)C(=O)N[C@@H](CCSC)C(=O)N[C@@H](CCCNC(=N)N)C(=O)N[C@@H](Cc1ccc(O)cc1)C(=O)N[C@@H](Cc1c[nH]c2ccccc12)C(=O)N[C@@H](Cc1ccc(O)cc1)C(=O)N[C@H](CCSC)C(N)=O [Peptide 93] (HELM PEPTIDE1{[CCCC(=O)[*:2]].H.M.R.Y.W.Y.[dM].[am]}$$$$V2.0)	< 10	1 to 10
CSCC[C@H](NC(=O)[C@@H](N)CCCNC(=N)N)C(=O)N[C@@H](CCCNC(=N)N)C(=O)N[C@@H](Cc1ccc(O)cc1)C(=O)N[C@@H](CCCNC(=N)N)C(=O)N[C@H](C(=O)N[C@H](CCSC)C(N)=O)C(C)C [Peptide 30] (HELM PEPTIDE1{R.M.R.Y.R.V.[dM].[am]}$$$$V2.0)	< 10	> 10
CSCC[C@H](NC(=O)[C@@H](N)CCCCN)C(=O)N[C@@H](CCCCN)C(=O)N[C@@H](Cc1ccc(O)cc1)C(=O)N[C@@H](CCCCN)C(=O)N[C@H](C(=O)N[C@H](CCSC)C(N)=O)C(C)C [Peptide 9] (HELM PEPTIDE1{K.M.K.Y.K.V.[dM].[am]}$$$$V2.0)	11 to 100	> 10
CSCC[C@H](NC(=O)[C@H](CCCNC(=N)N)NC(C)=O)C(=O)N[C@@H](CCCNC(=N)N)C(=O)N[C@@H](Cc1ccc(O)cc1)C(=O)N[C@@H](Cc1ccc(O)cc1)C(=O)N[C@H](C(=O)N[C@H](CCSC)C(N)=O)C(C)C [Peptide 98] (HELM PEPTIDE1{[ac].R.M.R.Y.Y.V.[dM].[am]}$$$$V2.0)	< 10	1 to 10
CSCC[C@@H](NC(=O)[C@H](Cc1ccc(O)cc1)NC(=O)[C@H](Cc1ccc(O)cc1)NC(=O)[C@H](Cc1ccc(O)cc1)NC(=O)[C@H](CCCNC(=N)N)NC(=O)[C@H](Cc1c[nH]c2ccccc12)NC(=O)[C@@H](N)CCCNC(=N)N)C(N)=O [Peptide 123] (HELM PEPTIDE1{R.W.R.Y.Y.Y.[dM].[am]}$$$$V2.0)	< 10	> 10
CC[C@H](C)[C@H](N)C(=O)N[C@@H](CCCCN)C(=O)N[C@@H](Cc1ccccc1)C(=O)N[C@@H](CCCCN)C(=O)N[C@@H](Cc1ccc(O)cc1)C(=O)N[C@H](CCSC)C(N)=O [Peptide 131] (HELM PEPTIDE1{I.K.F.K.Y.[dM].[am]}$$$$V2.0)	11 to 100	> 10
CSCC[C@H](NC(C)=O)C(=O)N[C@@H](CCCNC(=N)N)C(=O)N[C@@H](Cc1ccc(O)cc1)C(=O)N[C@@H](CCCNC(=N)N)C(=O)N[C@@H](Cc1ccc(O)cc1)C(=O)N[C@H](CCSC)C(N)=O [Peptide 49] (HELM PEPTIDE1{[ac].M.R.Y.R.Y.[dM].[am]}$$$$V2.0)	11 to 100	> 10
CSCC[C@@H](NC(=O)[C@@H](NC(=O)[C@H](CCCCN)NC(=O)[C@H](Cc1ccc(O)cc1)NC(=O)[C@H](CCCCN)NC(=O)[C@@H]1CCCN1C(C)=O)C(C)C)C(N)=O [Peptide 139] (HELM PEPTIDE1{[ac].P.K.Y.K.V.[dM].[am]}$$$$V2.0)	< 10	> 10
CCCC(=O)N[C@@H](Cc1c[nH]cn1)C(=O)N[C@@H](CCSC)C(=O)N[C@@H](CCCNC(=N)N)C(=O)N[C@@H](Cc1ccc(O)cc1)C(=O)N[C@@H](CCCCN)C(=O)N[C@@H](Cc1ccc(O)cc1)C(=O)N[C@H](CCSC)C(N)=O [Peptide 45] (HELM PEPTIDE1{[CCCC(=O)[*:2]].H.M.R.Y.K.Y.[dM].[am]}$$$$V2.0)	< 10	> 10
CSCC[C@H](NC(=O)[C@@H](N)CCCNC(=N)N)C(=O)N[C@@H](CCCNC(=N)N)C(=O)N[C@@H](Cc1ccc(O)cc1)C(=O)N[C@@H](CCCCN)C(=O)N[C@H](C(=O)N[C@H](CCSC)C(N)=O)C(C)C [Peptide 5] (HELM PEPTIDE1{R.M.R.Y.K.V.[dM].[am]}$$$$V2.0)	< 10	> 10

Now from value to compound:

EC50 [1] [nM]	EC50 [2] [µM]	SMILES
< 10	> 10	CC[C@H](C)[C@H](N)C(=O)N[C@@H](CCCCN)C(=O)N[C@@H](Cc1ccc(O)cc1)C(=O)N[C@@H](CCCCN)C(=O)N[C@H](C(=O)N[C@H](CCSC)C(N)=O)C(C)C [Peptide 134] (HELM PEPTIDE1{I.K.Y.K.V.[dM].[am]}$$$$V2.0)
< 10	> 10	CSCC[C@H](NC(=O)[C@H](CCCNC(=N)N)NC(C)=O)C(=O)N[C@@H](CCCNC(=N)N)C(=O)N[C@@H](Cc1ccc(O)cc1)C(=O)N[C@@H](CCCCN)C(=O)N1CCC[C@H]1C(=O)N[C@H](CCSC)C(N)=O [Peptide 51] (HELM PEPTIDE1{[ac].R.M.R.Y.K.P.[dM].[am]}$$$$V2.0)
< 10	> 10	CSCC[C@H](NC(=O)[C@@H]1CCCN1)C(=O)N[C@@H](CCCCN)C(=O)N[C@@H](Cc1ccc(O)cc1)C(=O)N[C@@H](CCCCN)C(=O)N[C@H](C(=O)N[C@H](CCSC)C(N)=O)C(C)C [Peptide 25] (HELM PEPTIDE1{P.M.K.Y.K.V.[dM].[am]}$$$$V2.0)
< 10	> 10	CSCC[C@@H](NC(=O)[C@H](Cc1ccc(O)cc1)NC(=O)[C@H](Cc1c[nH]c2ccccc12)NC(=O)[C@H](Cc1ccc(O)cc1)NC(=O)[C@H](CCCCN)NC(=O)[C@H](Cc1c[nH]c2ccccc12)NC(=O)[C@H](CCCCN)NC(C)=O)C(N)=O [Peptide 80] (HELM PEPTIDE1{[ac].K.W.K.Y.W.Y.[dM].[am]}$$$$V2.0)
< 10	> 10	CCCC(=O)N[C@@H](CCCCN)C(=O)N[C@@H](CCSC)C(=O)N[C@@H](CCCCN)C(=O)N[C@@H](Cc1ccc(O)cc1)C(=O)N[C@@H](CCCCN)C(=O)N[C@H](C(=O)N[C@H](CCSC)C(N)=O)C(C)C [Peptide 11] (HELM PEPTIDE1{[CCCC(=O)[*:2]].K.M.K.Y.K.V.[dM].[am]}$$$$V2.0)
< 10	> 10	CSCC[C@@H](NC(=O)[C@@H](NC(=O)[C@H](CCCCN)NC(=O)[C@H](Cc1ccc(O)cc1)NC(=O)[C@H](CCCNC(=N)N)NC(=O)[C@@H](N)Cc1c[nH]c2ccccc12)C(C)C)C(N)=O [Peptide 3] (HELM PEPTIDE1{W.R.Y.K.V.[dM].[am]}$$$$V2.0)
11 to 100	> 10	CC[C@H](C)[C@H](N)C(=O)N[C@@H](CCCCN)C(=O)N[C@@H](CCCCN)C(=O)N[C@@H](Cc1c[nH]c2ccccc12)C(=O)N[C@@H](CCSC)C(=O)N[C@H](CCSC)C(N)=O [Peptide 130] (HELM PEPTIDE1{I.K.K.W.M.[dM].[am]}$$$$V2.0)
< 10	0.101 to 1	CSCC[C@@H](NC(=O)[C@@H]1CCCN1C(=O)[C@H](Cc1c[nH]c2ccccc12)NC(=O)[C@H](Cc1ccc(O)cc1)NC(=O)[C@H](CCCNC(=N)N)NC(=O)[C@H](Cc1c[nH]c2ccccc12)NC(=O)[C@H](CCCNC(=N)N)NC(C)=O)C(N)=O [Peptide 117] (HELM PEPTIDE1{[ac].R.W.R.Y.W.P.[dM].[am]}$$$$V2.0)
